According to PMC3914206:

Columns and labels:
panel of 442 kinases [1] = target: T1, panel of 442 kinases (Homo sapiens, UniProt Q13237); type: binding; details: Compound Concentration 10 µM
T1 construct: purchased KINOMEscan
T1 sequence (Q13237 1-762): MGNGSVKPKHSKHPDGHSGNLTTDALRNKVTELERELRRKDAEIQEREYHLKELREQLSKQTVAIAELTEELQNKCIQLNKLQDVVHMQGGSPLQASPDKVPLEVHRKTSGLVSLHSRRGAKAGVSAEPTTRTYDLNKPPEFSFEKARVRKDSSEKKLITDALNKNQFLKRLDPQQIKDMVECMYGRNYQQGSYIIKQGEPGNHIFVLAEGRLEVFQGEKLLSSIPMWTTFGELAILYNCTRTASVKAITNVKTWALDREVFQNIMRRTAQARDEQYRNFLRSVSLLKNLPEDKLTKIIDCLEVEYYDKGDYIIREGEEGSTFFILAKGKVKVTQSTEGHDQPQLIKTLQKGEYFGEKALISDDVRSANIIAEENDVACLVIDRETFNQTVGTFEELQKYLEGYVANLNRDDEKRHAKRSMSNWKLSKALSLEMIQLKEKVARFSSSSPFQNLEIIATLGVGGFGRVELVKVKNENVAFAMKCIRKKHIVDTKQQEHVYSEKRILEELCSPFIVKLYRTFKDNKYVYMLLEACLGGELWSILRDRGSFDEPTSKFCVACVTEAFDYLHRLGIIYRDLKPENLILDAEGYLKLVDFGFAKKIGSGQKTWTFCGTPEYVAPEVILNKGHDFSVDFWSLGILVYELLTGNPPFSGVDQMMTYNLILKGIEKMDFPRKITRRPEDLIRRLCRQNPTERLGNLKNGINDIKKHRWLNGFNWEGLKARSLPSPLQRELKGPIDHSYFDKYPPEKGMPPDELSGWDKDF
From the text: (§1) We assessed the selectivity of members of this scaffold using the KINOMEscan methodology across a near comprehensive panel of 442 kinases [[18,27]].

panel of 442 kinases [2] = target: T2, panel of 442 kinases (Homo sapiens, UniProt P23458); type: binding; details: Compound Concentration 10 µM
T2 construct: purchased KINOMEscan
T2 sequence (P23458 whole entry): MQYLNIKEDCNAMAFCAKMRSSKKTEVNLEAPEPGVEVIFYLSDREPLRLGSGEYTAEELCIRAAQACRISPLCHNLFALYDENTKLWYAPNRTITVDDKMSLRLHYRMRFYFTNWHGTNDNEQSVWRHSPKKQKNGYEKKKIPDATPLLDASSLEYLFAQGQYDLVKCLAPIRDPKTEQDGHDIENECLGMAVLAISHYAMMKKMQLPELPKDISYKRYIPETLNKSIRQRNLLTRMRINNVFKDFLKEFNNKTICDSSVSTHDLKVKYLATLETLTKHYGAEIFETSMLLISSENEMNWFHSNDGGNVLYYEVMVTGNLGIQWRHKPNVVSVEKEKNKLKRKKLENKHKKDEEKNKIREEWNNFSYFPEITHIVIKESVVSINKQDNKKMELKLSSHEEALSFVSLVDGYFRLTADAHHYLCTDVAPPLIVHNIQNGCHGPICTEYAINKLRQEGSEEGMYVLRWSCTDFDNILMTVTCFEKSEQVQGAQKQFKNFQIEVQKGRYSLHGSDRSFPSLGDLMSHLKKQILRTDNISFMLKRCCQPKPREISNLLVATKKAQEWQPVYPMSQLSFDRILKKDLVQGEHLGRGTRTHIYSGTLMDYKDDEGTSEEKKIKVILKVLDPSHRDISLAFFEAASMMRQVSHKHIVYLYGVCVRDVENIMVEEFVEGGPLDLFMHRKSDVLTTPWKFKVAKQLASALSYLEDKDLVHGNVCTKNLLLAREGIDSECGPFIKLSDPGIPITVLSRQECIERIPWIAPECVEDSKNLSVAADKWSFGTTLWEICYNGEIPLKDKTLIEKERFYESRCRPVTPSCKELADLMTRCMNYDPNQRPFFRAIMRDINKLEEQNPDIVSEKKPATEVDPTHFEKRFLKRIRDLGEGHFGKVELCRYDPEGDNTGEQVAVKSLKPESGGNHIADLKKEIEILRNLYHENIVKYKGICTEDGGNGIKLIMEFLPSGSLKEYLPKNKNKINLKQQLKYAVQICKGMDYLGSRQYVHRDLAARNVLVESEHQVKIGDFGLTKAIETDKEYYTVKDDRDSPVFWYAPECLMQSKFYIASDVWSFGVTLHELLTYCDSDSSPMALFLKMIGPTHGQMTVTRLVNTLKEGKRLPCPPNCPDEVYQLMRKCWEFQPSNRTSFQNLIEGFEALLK
From the text: as §1

SMILES | KINOMEscan: PRKG2 (panel of 442 kinases [1]) | KINOMEscan: JAK1(JH1domain-catalytic) (panel of 442 kinases [2]) | KINOMEscan: JAK1(JH2domain-pseudokinase) (panel of 442 kinases [2])
CCOc1cc(C(=O)N2CCC(N3CCN(C)CC3)CC2)ccc1Nc1ncc2c(n1)N(C1CCCC1)c1ccccc1C(=O)N2C [Compound 26] | 100 | 100 | 98
COc1cc(C(=O)N2CCC(N3CCN(C)CC3)CC2)ccc1Nc1ncc2c(n1)N(C1CCCC1)c1ccccc1C(=O)N2C [Compound 25, 11-cyclopentyl-2-((2-methoxy-4-(4-(4-methylpiperazin-1-yl)piperidine-1-carbonyl)phenyl)amino)-5-methyl-5H-benzo[e]pyrimido[5,4-b][1,4]diazepin-6(11H)-one] | 98 | 100 | 100
COc1cc(C(=O)N2CCC(N3CCN(C)CC3)CC2)ccc1Nc1ncc2c(n1)N1CCc3cccc(c31)C(=O)N2C [Compound 24] | 98 |  | 62
COc1cc(C(=O)N2CCC(N3CCN(C)CC3)CC2)ccc1Nc1ncc2c(n1)N(C)c1ccccc1C(=O)N2C [15 (LRRK2-IN-1)] | 74 | 100 | 92
